Laboratory results as given in ChEMBL document CHEMBL3286136, “Discovery of camphor-derived pyrazolones as 11β-hydroxysteroid dehydrogenase type 1 inhibitors” (Bioorg Med Chem Lett, 2014).
Converted amounts (≈) assume the structure as drawn.

Key:
[1] = target: 11-beta-hydroxysteroid dehydrogenase 1 (Rattus norvegicus, UniProt P16232); assay: Inhibition of rat 11betaHSD1 assessed as reduction of cortisone to cortisol by ELISA
[2] = Effective permeability of the compound at pH 6.5 by PAMPA; type: physicochemical; settings: read-out: Peff
Mus musculus [3] = assay: Reduction in plasma cortisol level in db/db mouse at 150 mg/kg, po after 30 mins […] measured after 5.5 hrs relative to control; type: functional
[4] = Clearance in iv dosed rat; type: ADME, organism-based; settings: in vivo
Cytochrome P450 3A4 = Cytochrome P450 3A4 (Homo sapiens, UniProt P08684); assay: Inhibition of CYP3A4 (unknown origin); type: ADME
Cytochrome P450 3A4, sequence (P08684 whole entry): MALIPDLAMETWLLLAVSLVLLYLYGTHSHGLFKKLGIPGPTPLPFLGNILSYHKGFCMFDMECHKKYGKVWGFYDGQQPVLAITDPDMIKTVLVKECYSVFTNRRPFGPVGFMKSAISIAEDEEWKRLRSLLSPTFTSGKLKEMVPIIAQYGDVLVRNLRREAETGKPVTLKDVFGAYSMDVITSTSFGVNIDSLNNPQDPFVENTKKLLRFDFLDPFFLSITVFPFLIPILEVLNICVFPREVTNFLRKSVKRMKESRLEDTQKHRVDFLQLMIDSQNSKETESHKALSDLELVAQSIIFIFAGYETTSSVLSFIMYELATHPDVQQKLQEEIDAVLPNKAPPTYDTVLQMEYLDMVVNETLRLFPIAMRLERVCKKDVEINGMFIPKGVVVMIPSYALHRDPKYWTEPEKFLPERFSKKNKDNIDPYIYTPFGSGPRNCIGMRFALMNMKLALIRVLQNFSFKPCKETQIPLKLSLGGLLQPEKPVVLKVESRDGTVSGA

[5] = Half life in iv dosed rat; type: ADME, organism-based; settings: in vivo
[6] = Kinetic aqueous solubility of the compound at pH 6.5; type: physicochemical; settings: read-out: Kinetic_solubility
[7] = Volume of distribution at steady state in iv dosed rat; type: ADME, organism-based; settings: in vivo, read-out: Vdss
hERG (KCNH2) = hERG (KCNH2) (Homo sapiens, UniProt Q12809); assay: Inhibition of human ERG
hERG (KCNH2), sequence (Q12809 whole entry): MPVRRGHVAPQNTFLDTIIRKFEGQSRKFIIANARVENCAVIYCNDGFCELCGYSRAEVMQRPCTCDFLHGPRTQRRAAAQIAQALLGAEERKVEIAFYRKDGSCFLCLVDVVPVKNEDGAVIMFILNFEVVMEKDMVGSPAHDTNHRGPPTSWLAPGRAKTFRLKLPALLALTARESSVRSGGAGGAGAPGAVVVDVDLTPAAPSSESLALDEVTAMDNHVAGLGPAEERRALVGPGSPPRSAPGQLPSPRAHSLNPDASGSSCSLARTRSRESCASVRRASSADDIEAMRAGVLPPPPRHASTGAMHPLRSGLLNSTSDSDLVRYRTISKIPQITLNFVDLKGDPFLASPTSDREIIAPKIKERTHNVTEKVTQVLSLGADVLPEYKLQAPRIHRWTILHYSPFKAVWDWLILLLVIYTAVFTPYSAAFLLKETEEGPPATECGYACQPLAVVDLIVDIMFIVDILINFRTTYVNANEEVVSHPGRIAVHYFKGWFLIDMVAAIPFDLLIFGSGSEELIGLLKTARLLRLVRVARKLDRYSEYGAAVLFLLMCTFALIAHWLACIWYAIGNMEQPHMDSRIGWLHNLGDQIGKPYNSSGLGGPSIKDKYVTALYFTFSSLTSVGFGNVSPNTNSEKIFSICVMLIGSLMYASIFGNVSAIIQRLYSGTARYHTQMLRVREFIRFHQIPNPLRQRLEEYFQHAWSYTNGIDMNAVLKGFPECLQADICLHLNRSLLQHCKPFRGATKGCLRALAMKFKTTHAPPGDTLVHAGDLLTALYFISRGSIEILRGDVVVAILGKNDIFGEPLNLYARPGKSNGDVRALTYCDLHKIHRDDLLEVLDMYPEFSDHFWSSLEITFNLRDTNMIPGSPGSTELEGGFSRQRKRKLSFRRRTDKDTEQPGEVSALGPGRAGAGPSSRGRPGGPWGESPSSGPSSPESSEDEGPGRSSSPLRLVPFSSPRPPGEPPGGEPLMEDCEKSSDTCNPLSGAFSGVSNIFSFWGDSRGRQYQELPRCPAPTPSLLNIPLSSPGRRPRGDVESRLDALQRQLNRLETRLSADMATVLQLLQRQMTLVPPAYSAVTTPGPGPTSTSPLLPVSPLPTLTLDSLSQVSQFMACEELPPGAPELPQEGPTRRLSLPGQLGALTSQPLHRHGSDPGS

Mus musculus [8] = assay: Toxicity in db/db mouse assessed as sedative effect at 150 mg/kg, po after 13 days; type: organism-based; design: dose 150 mg/kg, route oral; settings: in vivo, 312 h
[9] = Clearance in human liver microsomes at 1 uM; type: ADME; settings: read-out: CLH
[10] = Oral bioavailability in rat; type: ADME, organism-based; settings: in vivo
[11] = Cmax in rat at 50 mg/kg, po; type: ADME, organism-based; design: dose 50 mg/kg, route oral; settings: in vivo
[12] = Tmax in po dosed rat; type: ADME, organism-based; settings: in vivo
[13] = Cmax in rat at 20 mg/kg, po; type: ADME, organism-based; design: dose 20 mg/kg, route oral; settings: in vivo
[14] = target: 11-beta-hydroxysteroid dehydrogenase 1 (Homo sapiens, UniProt P28845); assay: Inhibition of full-length human 11betaHSD1 expressed in HEK293 cells assessed as cortisol level by competitive ELISA; type: cell-based
11-beta-hydroxysteroid dehydrogenase 1 (Homo sapiens, UniProt P28845), sequence (P28845 whole entry): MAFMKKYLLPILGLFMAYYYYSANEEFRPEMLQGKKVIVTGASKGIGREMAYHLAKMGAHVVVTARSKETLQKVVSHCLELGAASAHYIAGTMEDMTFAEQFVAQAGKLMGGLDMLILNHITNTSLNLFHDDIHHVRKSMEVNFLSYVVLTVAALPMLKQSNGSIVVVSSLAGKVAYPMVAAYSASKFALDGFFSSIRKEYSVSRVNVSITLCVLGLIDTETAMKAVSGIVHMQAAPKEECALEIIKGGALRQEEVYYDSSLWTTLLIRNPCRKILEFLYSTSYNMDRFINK

11-beta-hydroxysteroid dehydrogenase 1 (Rattus norvegicus, UniProt P16232), sequence (P16232 whole entry): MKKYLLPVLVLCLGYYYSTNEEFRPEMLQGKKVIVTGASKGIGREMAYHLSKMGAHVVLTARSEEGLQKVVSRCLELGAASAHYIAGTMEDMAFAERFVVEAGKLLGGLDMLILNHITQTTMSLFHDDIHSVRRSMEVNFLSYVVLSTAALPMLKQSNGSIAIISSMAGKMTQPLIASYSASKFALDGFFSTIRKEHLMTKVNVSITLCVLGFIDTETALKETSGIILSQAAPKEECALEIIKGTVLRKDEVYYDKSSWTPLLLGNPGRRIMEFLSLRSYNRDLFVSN

SMILES | IC50 [1] | Papp [2] | clearance [4] | half-life [5] | solubility kinetic [6] | Vd [7] | microsomal CLint at 1 µM [9] | bioavailability [10] | Tmax [12] | further results
CCCn1c2c(c(=O)n1-c1ccccc1F)[C@H]1CC[C@]2(C)C1(C)C | 110 nM | – | – | – | – | – | – | – | – | –
Cn1c2c(c(=O)n1-c1ccccn1)[C@H]1CC[C@]2(C)C1(C)C | > 5000 nM | – | – | – | – | – | – | – | – | –
CC(C)n1c2c(c(=O)n1-c1ccccc1F)[C@H]1CC[C@]2(C)C1(C)C | 22 nM | – | – | – | – | – | – | – | – | –
Cn1c2c(c(=O)n1-c1ccccc1)[C@H]1CC[C@]2(C)C1(C)C | 138 nM | 9.7 ×10⁻⁶ cm/s | 25.7 mL/min/kg | 1.2 h | 169 µg/mL (≈ 598 µM) | 1.4 L/kg | 3.6 µL/min/mg | 9% | 0.5 h | Cmax [13]: 335 ng/mL; IC50 (Cytochrome P450 3A4): > 50000 nM
Cn1c2c(c(=O)n1-c1ccccc1Cl)[C@H]1CC[C@]2(C)C1(C)C | 39 nM | 9.9 ×10⁻⁶ cm/s | 29.3 mL/min/kg | 4.9 h | > 625 µg/mL | 2.7 L/kg | 197 µL/min/mg | 29% | 1 h | IC50 (Cytochrome P450 3A4): > 50000 nM; IC20 (hERG (KCNH2)): > 30000 nM; Cmax [11]: 2840 ng/mL
Cc1ccccc1-c1cccc(Cn2c(=O)c3c(n2C)[C@]2(C)CC[C@H]3C2(C)C)c1 | 21 nM | – | – | – | – | – | – | – | – | –
CC1(C)[C@@H]2CC[C@@]1(C)c1c2c(=O)n(-c2ccc(F)cc2F)n1CCc1ccccc1 | 18 nM | – | – | – | – | – | – | – | – | –
Cn1c2c(c(=O)n1-c1ccccc1)[C@@H]1CC[C@@]2(C)C1(C)C | 116 nM | – | – | – | – | – | – | – | – | –
Cn1c2c(c(=O)n1Cc1ccccc1)[C@H]1CC[C@]2(C)C1(C)C | 77 nM | – | – | – | – | – | – | – | – | –
COc1c2c(nn1-c1ccc(C)cc1)[C@]1(C)CC[C@H]2C1(C)C | > 11000 nM | – | – | – | – | – | – | – | – | IC50 [14]: > 22000 nM
COc1cccc(-n2c(=O)c3c(n2C)[C@]2(C)CC[C@H]3C2(C)C)c1 | 41 nM | – | – | – | – | – | – | – | – | –
Cn1c2c(c(=O)n1-c1c(Cl)cccc1Cl)[C@H]1CC[C@]2(C)C1(C)C | > 11000 nM | – | – | – | – | – | – | – | – | IC50 [14]: > 22000 nM
C=CCn1c2c(c(=O)n1-c1ccccc1F)[C@H]1CC[C@]2(C)C1(C)C | 35 nM | – | – | – | – | – | – | – | – | –

Further lines, with some results ahead:

IC50 [1] | Papp [2] | clearance [4] | half-life [5] | solubility kinetic [6] | Vd [7] | microsomal CLint at 1 µM [9] | bioavailability [10] | Tmax [12] | SMILES | further results
12 nM | – | – | – | – | – | – | – | – | CC1(C)[C@@H]2CC[C@@]1(C)c1c2c(=O)n(-c2ccccc2F)n1Cc1ccccc1 | –
5 nM | 6.7 ×10⁻⁶ cm/s | 40.2 mL/min/kg | 5.4 h | 50 µg/mL (≈ 142 µM) | 4.6 L/kg | 170 µL/min/mg | 71% | 0.5 h | Cn1c2c(c(=O)n1-c1cc(Cl)ccc1Cl)[C@H]1CC[C@]2(C)C1(C)C | inhibition (INH) (Mus musculus [3]): 93%; IC50 (Cytochrome P450 3A4): > 25000 nM; IC20 (hERG (KCNH2)): 51000 nM; Activity (Mus musculus [8]): Non-toxic; Cmax [11]: 280 ng/mL
16 nM | 8.8 ×10⁻⁶ cm/s | 57.5 mL/min/kg | 0.9 h | 171 µg/mL (≈ 477 µM) | 2.3 L/kg | 645 µL/min/mg | 29% | 3.2 h | CC1(C)[C@@H]2CC[C@@]1(C)c1c2c(=O)n(-c2ccccc2)n1Cc1ccccc1 | Cmax [11]: 648 ng/mL
10 nM | 10.9 ×10⁻⁶ cm/s | 31.8 mL/min/kg | 1 h | > 376 µg/mL | 1.2 L/kg | 68 µL/min/mg | 109% | 0.7 h | Cn1c2c(c(=O)n1-c1ccccc1C(F)(F)F)[C@H]1CC[C@]2(C)C1(C)C | Cmax [13]: 2150 ng/mL; inhibition (INH) (Mus musculus [3]): 93%; IC50 (Cytochrome P450 3A4): 22600 nM; IC20 (hERG (KCNH2)): > 30000 nM; Activity (Mus musculus [8]): Toxic
10 nM | 8.2 ×10⁻⁶ cm/s | 34.8 mL/min/kg | 3 h | 246 µg/mL (≈ 675 µM) | 2 L/kg | 604 µL/min/mg | 5% | 0.8 h | Cn1c2c(c(=O)n1Cc1ccccc1C(F)(F)F)[C@H]1CC[C@]2(C)C1(C)C | IC50 (Cytochrome P450 3A4): 4800 nM; Cmax [11]: 294 ng/mL
18 nM | – | – | – | – | – | – | – | – | CCn1c2c(c(=O)n1-c1ccccc1)[C@H]1CC[C@]2(C)C1(C)C | –
4 nM | – | – | – | – | – | – | – | – | Cn1c2c(c(=O)n1-c1cccc(I)c1)[C@H]1CC[C@]2(C)C1(C)C | –
13 nM | 11.2 ×10⁻⁶ cm/s | 29 mL/min/kg | 0.8 h | 82 µg/mL (≈ 208 µM) | 1 L/kg | 582 µL/min/mg | 35% | 2.3 h | CC1(C)[C@@H]2CC[C@@]1(C)c1c2c(=O)n(-c2ccc(F)cc2F)n1Cc1ccccc1 | inhibition (INH) (Mus musculus [3]): 93%; IC50 (Cytochrome P450 3A4): 6100 nM; IC20 (hERG (KCNH2)): > 30000 nM; Cmax [11]: 2280 ng/mL
